Source: the supplement of paper PMC11616607

What was measured:
Assay in all cases: drug sensitivity score (DSS) from 5-point dose-response viability curve (DSS (area-under-curve based score)); higher = more sensitive (stronger growth inhibition or killing); extreme values may be limits of the assay
Details in all cases: exposure time: 72 h; concentration range: 5 concentrations over 10,000-fold range
[1] = tested on: CAOV3
How it was run: (§1)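 Drugs in DMSO or water were acoustically dispensed (Echo 550) into 384-well plates at five concentrations across a 10,000-fold range. Ovarian cancer and normal ovarian cells (1,500 per well) were then added, incubated for 3 days at 37°C with 5% CO2, and read for viability by CellTiter-Glo luminescence on a PHERAstar FS. From these readings, Breeze software derived a drug sensitivity score per cell line and drug, with higher values meaning more sensitive and zero meaning no response.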

[2] = tested on: COV318
How it was run: as §1

[3] = tested on: COV362
How it was run: as §1

[4] = tested on: HOSE1C
How it was run: as §1

[5] = tested on: HOSE2C
How it was run: as §1

[6] = tested on: JHOS2
How it was run: as §1

[7] = tested on: Kuramochi
How it was run: as §1

[8] = tested on: OV90
How it was run: as §1

[9] = tested on: OVCAR4
How it was run: as §1

[10] = tested on: OVCAR5
How it was run: as §1

[11] = tested on: OVCAR8
How it was run: as §1

[12] = tested on: Ovsaho
How it was run: as §1

| SMILES | drug sensitivity score [1] | drug sensitivity score [2] | drug sensitivity score [3] | drug sensitivity score [4] | drug sensitivity score [5] | drug sensitivity score [6] | drug sensitivity score [7] | drug sensitivity score [8] | drug sensitivity score [9] | drug sensitivity score [10] | drug sensitivity score [11] | drug sensitivity score [12] |
| --- | --- | --- | --- | --- | --- | --- | --- | --- | --- | --- | --- | --- |
| C[C@@H]1C=C2C(=O)O[C@@H]3CC[C@H](C1)[C@]23O [Galiellalactone] | 6.1 | 3.8 | 2.9 | 8.1 | 7.3 | 5.6 | 0 | 7.1 | 6.5 | 7.6 | 3.6 | 4.6 |
| Cc1cccc(-c2nn3c(c2-c2ccnc4ccc(C(N)=O)cc24)CCC3)n1 [Galunisertib] | 0 | 0.3 | 1.8 | 0 | 0 | 0 | 0 | 0 | 0 | 0 | 0 | 0 |
| Cc1cc(Nc2cc(CN3CCOCC3)c3nc(C)c(Cc4ccc(Cl)cc4F)n3n2)n[nH]1 [Gandotinib] | 5.9 | 4.9 | 4.6 | 5.9 | 8.9 | 3.1 | 5.9 | 4.1 | 4 | 5.8 | 7.1 | 6.7 |
| CC(C)c1cc(-c2n[nH]c(=O)n2-c2ccc3c(ccn3C)c2)c(O)cc1O [Ganetespib] | 16.2 | 10.3 | 12.7 | 22.9 | 26.1 | 18 | 11.9 | 15.3 | 11.3 | 13.6 | 17 | 5 |
| CN(C)C1CCN(C(=O)c2ccc(NC(=O)Nc3ccc(-c4nc(N5CCOCC5)nc(N5CCOCC5)n4)cc3)cc2)CC1 [Gedatolisib] | 10 | 3.2 | 4.8 | 17.9 | 13.1 | 7.4 | 11.4 | 15.4 | 14.8 | 12.3 | 7.5 | 13.4 |
| COc1cc2ncnc(Nc3ccc(F)c(Cl)c3)c2cc1OCCCN1CCOCC1 [Gefitinib] | 7.2 | 0.5 | 0.3 | 0 | 0.3 | 1.6 | 1.8 | 4 | 1.9 | 5.6 | 3.3 | 3.8 |
| Nc1ccn([C@@H]2O[C@H](CO)[C@@H](O)C2(F)F)c(=O)n1 [Gemcitabine] | 23.6 | 3.5 | 8.1 | 8.2 | 6.7 | 12.7 | 0 | 13.5 | 0 | 15.5 | 23.6 | 3.3 |
| CCc1nc(C(N)=O)c(Nc2ccc(N3CCC(N4CCN(C)CC4)CC3)c(OC)c2)nc1NC1CCOCC1 [Gilteritinib] | 3.9 | 0.6 | 0.4 | 0 | 0 | 0 | 0.7 | 2.2 | 0.1 | 4.9 | 0.4 | 0 |
| CCN(CC)Cc1ccc2cc(COC(=O)Nc3ccc(C(=O)NO)cc3)ccc2c1 [Givinostat] | 7.3 | 4.2 | 2.2 | 12.3 | 8.6 | 5.3 | 6.2 | 7.7 | 4.1 | 10.8 | 10 | 3.2 |
| CN1CC[C@@H](NC(=O)Nc2ccc(C#N)cc2)C[C@@H]1c1nc2ccccc2[nH]1 [Glasdegib] | 0 | 0 | 0 | 0 | 0 | 0 | 0 | 0 | 0 | 0 | 0 | 0 |
| COCCNCc1ccc(-c2cc3nccc(Oc4ccc(NC(=S)NC(=O)Cc5ccc(F)cc5)cc4F)c3s2)nc1 [Glesatinib] | 0 | 0.1 | 1.6 | 2.9 | 1.9 | 0 | 0 | 0 | 0 | 1.2 | 0 | 0.2 |
| CN1CCN(C2CCN(C(=O)Nc3cc(Oc4ccc(NC(=O)C5(C(=O)Nc6ccc(F)cc6)CC5)c(F)c4)ccn3)CC2)CC1 [Golvatinib] | 0 | 0 | 0 | 0 | 0 | 0 | 0.8 | 1.4 | 0 | 0.1 | 0 | 0 |
| CC(C)C[C@H](NC(=O)[C@@H](COC(C)(C)C)NC(=O)[C@H](Cc1ccc(O)cc1)NC(=O)[C@H](CO)NC(=O)[C@H](Cc1c[nH]c2ccccc12)NC(=O)[C@H](Cc1cnc[nH]1)NC(=O)[C@@H]1CCC(=O)N1)C(=O)N[C@@H](CCCNC(=N)N)C(=O)N1CCC[C@H]1C(=O)NNC(N)=O [Goserelin] | 0 | 0 | 0 | 0 | 0 | 0 | 0 | 0 | 0 | 0 | 0 | 4.7 |
